Reference: US10233156B2, “9-membered fused ring derivative” (Shionogi & Co., Ltd., priority 2015, dated 2019)

Legend:
[1] = molecular target: recombinant human ACC2 (Homo sapiens (Human), UniProt O00763); test: Measurement of inhibitory activity on human ACC2 (MALDI-TOF MS, conversion of acetyl CoA to malonyl CoA); format: biochemical; conditions: recombinant human ACC2, room temperature, 1 to 3 hours
Source text: After a cDNA encoding human ACC2 (27 amino acid residue to 2458 amino acid residues from the N-terminus) was cloned from human kidney cDNA library (Clontech), human ACC2 gene containing His-tag sequence at 5′ terminus was inserted into pFastBac1 (Invitrogen). Recombinant baculovirus was generated using Bac-to-Bac baculovirus expression system (Invitrogen) according to the manufacturer's protocol. To express human ACC2, Sf-9 cells were infected with recombinant baculovirus. After infected cells were disrupted, the filtrated lysate was subjected to Ni-affinity chromatography and anion-exchange chromatography. The fractions containing human ACC2 protein were pooled as recombinant human ACC2 solution.
(§1) Recombinant human ACC1 and recombinant human ACC2, which were prepared by the method mentioned above, were preincubated with assay buffer solution (50 mM HEPES-KOH (pH 7.4), 10 mM magnesium chloride, 6-10 mM potassium citrate, 4 mM reduced form of glutathione, 1.5 mg/ml bovine serum albumin) for one hour. Then, 0.2 μL of each this invention compound solution (in DMSO) were dispensed to 384-well microplate, 5 μL of the preincubated enzyme solution and 5 μL of substrate solution (50 mM HEPES-KOH (pH 7.4), 1 mM ATP, 0.8 mM acetyl CoA and 25-50 mM potassium bicarbonate) were added to microplate. After centrifugation and shaking, the reaction mixtures were incubated in a humidified box at room temperature for 1 to 3 hours. After the incubation, the enzyme reactions were stopped by the addition of EDTA. Then, after the samples were cocrystallized with CHCA (α-cyano-4-hydroxy cinnamic acid) matrices on MALDI target plate, by using the matrix assist laser […] time-of-flight mass spectrometer (MALDI-TOF MS), samples were measured in reflector negative mode. Deprotonated ions of acetyl CoA (AcCoA) of substrate and malonyl CoA (MalCoA) of the reaction product were detected, then, the conversion rates of acetyl CoA to malonyl CoA was calculated by the intensity of [MalCoA-H]−/(Intensity of [MalCoA-H].+Intensity of [AcCoA-H]—) using each signal strength. […] In addition, potassium citrate concentrations in assay buffer solution, potassium hydrogen carbonate concentrations in substrate solution and incubation time were adjusted by each lot of enzyme.

[2] = molecular target: recombinant human ACC1 (Homo sapiens (Human), UniProt Q13085); test: Measurement of inhibitory activity on human ACC1 (MALDI-TOF MS, conversion of acetyl CoA to malonyl CoA); format: biochemical; conditions: recombinant human ACC1, room temperature, 1 to 3 hours
Source text: After a cDNA encoding human ACC1 (1 amino acid residue to 2346 amino acid residues from the N-terminus) was cloned from human liver cDNA library (BioChain), human ACC1 gene containing myc-tag and His-tag sequence at 3′ terminus was inserted into pIEXBAC3 (Novagen). Recombinant baculovirus was generated using FlashBACGOLD system (Oxford Expression Technologies) according to the manufacturer's protocol. To express human ACC1, Sf-9 cells were infected with recombinant baculovirus. After infected cells were disrupted, the filtrated lysate was subjected to Ni-affinity chromatography and anion-exchange chromatography. The fractions containing human ACC1 protein were pooled as recombinant human ACC1 solution.
as §1

recombinant human ACC2, sequence (O00763 27-2458): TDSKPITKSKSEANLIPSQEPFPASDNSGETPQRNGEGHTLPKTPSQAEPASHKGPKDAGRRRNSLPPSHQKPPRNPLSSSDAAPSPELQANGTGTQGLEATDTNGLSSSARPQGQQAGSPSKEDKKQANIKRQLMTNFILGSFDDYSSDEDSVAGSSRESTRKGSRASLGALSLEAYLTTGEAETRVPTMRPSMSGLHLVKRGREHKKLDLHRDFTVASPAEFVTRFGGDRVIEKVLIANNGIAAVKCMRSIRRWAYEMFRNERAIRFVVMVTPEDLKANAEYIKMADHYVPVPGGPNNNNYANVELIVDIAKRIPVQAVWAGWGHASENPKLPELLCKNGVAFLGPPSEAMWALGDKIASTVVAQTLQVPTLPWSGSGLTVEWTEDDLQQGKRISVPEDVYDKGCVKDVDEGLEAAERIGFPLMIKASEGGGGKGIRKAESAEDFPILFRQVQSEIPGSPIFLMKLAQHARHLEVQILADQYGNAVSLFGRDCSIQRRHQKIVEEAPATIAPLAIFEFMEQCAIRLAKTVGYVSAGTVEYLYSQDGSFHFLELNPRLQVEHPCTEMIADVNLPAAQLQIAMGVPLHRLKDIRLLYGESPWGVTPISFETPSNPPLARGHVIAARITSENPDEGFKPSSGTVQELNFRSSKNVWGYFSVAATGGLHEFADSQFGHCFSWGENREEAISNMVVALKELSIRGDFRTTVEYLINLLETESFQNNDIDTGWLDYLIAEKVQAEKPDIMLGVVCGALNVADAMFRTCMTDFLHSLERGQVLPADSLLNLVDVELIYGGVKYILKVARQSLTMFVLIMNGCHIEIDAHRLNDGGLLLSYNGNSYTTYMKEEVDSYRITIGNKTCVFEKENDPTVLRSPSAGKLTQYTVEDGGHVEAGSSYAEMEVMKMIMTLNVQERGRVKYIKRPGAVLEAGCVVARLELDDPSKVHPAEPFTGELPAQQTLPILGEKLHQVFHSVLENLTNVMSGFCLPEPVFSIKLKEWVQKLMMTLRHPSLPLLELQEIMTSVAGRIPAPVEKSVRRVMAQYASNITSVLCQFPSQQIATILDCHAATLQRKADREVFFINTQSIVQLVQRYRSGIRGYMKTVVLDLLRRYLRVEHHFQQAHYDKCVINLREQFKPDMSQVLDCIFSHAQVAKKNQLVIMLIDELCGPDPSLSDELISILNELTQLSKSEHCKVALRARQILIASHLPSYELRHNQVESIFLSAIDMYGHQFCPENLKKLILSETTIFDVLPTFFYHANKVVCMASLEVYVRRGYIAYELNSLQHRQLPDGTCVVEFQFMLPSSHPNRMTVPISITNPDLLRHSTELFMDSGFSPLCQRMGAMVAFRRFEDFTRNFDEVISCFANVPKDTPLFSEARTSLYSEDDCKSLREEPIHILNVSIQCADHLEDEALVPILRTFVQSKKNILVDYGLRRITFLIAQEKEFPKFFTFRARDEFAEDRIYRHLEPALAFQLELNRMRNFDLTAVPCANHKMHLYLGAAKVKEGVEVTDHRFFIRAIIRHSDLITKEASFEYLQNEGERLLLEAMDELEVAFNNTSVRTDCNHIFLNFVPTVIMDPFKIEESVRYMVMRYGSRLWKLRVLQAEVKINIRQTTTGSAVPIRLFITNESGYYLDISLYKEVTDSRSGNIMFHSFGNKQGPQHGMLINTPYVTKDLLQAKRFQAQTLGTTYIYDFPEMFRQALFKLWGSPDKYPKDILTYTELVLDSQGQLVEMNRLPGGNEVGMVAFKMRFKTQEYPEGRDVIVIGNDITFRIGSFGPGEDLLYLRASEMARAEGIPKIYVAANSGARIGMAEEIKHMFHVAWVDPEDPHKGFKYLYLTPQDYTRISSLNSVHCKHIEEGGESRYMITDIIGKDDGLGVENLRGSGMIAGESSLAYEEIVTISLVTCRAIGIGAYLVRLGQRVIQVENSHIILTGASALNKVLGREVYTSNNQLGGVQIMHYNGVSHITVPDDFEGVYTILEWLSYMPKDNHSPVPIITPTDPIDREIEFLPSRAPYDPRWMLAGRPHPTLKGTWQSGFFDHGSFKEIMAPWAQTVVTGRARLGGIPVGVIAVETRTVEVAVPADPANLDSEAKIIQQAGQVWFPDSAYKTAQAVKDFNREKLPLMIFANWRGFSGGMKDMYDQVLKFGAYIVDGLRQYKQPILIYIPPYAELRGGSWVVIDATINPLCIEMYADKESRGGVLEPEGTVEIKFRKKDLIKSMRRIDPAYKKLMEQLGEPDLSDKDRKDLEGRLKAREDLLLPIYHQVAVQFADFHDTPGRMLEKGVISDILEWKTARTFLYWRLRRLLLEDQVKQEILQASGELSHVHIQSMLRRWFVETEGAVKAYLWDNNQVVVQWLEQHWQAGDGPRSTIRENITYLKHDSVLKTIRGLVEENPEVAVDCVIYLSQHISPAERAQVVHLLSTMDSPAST

C[C@@H](CO[C@H]1CC[C@H](Oc2nc3c(F)cc(OCC(F)F)c(Cl)c3n2C)CC1)NS(N)(=O)=O [Example I-248]
IC50 [1]: 160 nM | IC50 [2]: > 100000 nM
